According to patent US20120225061A1, “TETRASUBSTITUTED CYCLOHEXYL COMPOUNDS AS KINASE INHIBITORS” (priority 2011, published 2012):

Experiments:
Pim2 kinase = Pim2 kinase (Homo sapiens, UniProt Q9P1W9); assay: Pim2 AlphaScreen assay (high ATP)
Pim3 kinase = Pim3 kinase (Homo sapiens, UniProt Q86V86); assay: Pim3 AlphaScreen assay (high ATP)
Pim1 kinase = Pim1 kinase (Homo sapiens, UniProt P11309); assay: Pim1 AlphaScreen assay (high ATP)
Protocol: The activity of Pim 1, Pim 2, & Pim 3 is measured using a homogeneous bead based system quantifying the amount of phosphorylated peptide substrate resulting from kinase-catalyzed phosphoryl transfer to a peptide substrate. Compounds to be tested are dissolved in 100% DMSO and directly distributed to a white 384-well plate at 0.25 μl per well. […] This is followed by the addition of 5 μl/well of Pim 1, Pim 2 or Pim 3 kinase in assay buffer (concentrations described below). Final assay concentrations (described below) are in 2.5% DMSO. The reactions are performed for ˜2 hours, then stopped by the addition of 10 μl of 0.75 μg/ml anti-phospho Ser/Thr antibody (Cell Signaling), 10 μg/ml Protein A AlphaScreen beads (Perkin Elmer), and 10 μg/ml streptavidin coated AlphaScreen beads in stop/detection buffer (50 mM EDTA, 95 mM Tris, pH=7.5, 0.01% Tween-20). The stopped reactions are incubated overnight in the dark. The phosphorylated peptide is detected via an oxygen anion initiated chemiluminescence/fluorescence cascade using the Envision plate reader (Perkin Elmer).

[1] = tested on: KMS11 (human myeloma cell line); assay: Cell proliferation assay (CellTiter-Glo) in KMS11 cells; type: cell-based; details: KMS-11, 72 h, Table 5, 3 days, read-out: KMS11-luc EC50
Procedure, shortened: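 KMS11 cells at 2000 per well in IMDM/10% FBS were exposed to compound for 3 days. Viability was read by CellTiter-Glo luminescence.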

Pim1 kinase, sequence (P11309 whole entry): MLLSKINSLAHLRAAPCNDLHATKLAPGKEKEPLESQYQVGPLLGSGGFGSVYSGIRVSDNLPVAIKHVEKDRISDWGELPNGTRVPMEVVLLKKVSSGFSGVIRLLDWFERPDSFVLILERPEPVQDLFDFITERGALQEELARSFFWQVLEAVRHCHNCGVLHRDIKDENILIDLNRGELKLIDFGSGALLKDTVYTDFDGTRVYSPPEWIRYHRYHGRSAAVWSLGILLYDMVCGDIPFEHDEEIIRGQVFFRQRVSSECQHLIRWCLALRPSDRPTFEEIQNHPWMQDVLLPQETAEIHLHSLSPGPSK
Pim2 kinase, sequence (Q9P1W9 whole entry): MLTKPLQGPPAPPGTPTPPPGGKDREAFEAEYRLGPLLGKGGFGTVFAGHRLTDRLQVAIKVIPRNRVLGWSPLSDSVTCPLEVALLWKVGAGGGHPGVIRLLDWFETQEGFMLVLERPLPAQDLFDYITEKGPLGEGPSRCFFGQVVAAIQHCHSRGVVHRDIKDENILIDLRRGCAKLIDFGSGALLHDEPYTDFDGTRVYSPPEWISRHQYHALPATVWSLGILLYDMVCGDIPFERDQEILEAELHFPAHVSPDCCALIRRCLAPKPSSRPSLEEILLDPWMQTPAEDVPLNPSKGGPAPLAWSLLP

IC50 (Pim2 kinase) [nM]	IC50 (Pim3 kinase) [nM]	IC50 (Pim1 kinase) [nM]	EC50 [1] [nM]	SMILES
2.15	0.69	0.04	340	COCCCOc1cc(F)c(-c2nc(C(=O)Nc3cnccc3[C@H]3C[C@@H](N)[C@](C)(O)[C@@H](C)C3)ccc2F)c(F)c1 [Example 100, N-(4-((1R,3R,4R,5S)-3-amino-4-hydroxy-4,5-dimethylcyclohexyl)pyridin-3-yl)-6-(2,6-difluoro-4-(3-methoxypropoxy)phenyl)-5-fluoropicolinamide]
2.21	0.85	0.04	334	C[C@H]1C[C@@H](c2ccncc2NC(=O)c2ccc(F)c(-c3c(F)cc(OCC4CCOCC4)cc3F)n2)C[C@@H](N)[C@]1(C)O [Example 101, N-(4-((1R,3R,4R,5S)-3-amino-4-hydroxy-4,5-dimethylcyclohexyl)pyridin-3-yl)-6-(2,6-difluoro-4-((tetrahydro-2H-pyran-4-yl)methoxy)phenyl)-5-fluoropicolinamide]
1.5	0.61	0.02	175	C[C@H]1C[C@@H](c2ccncc2NC(=O)c2ccc(F)c(-c3c(F)cc4c(c3F)OCC4)n2)C[C@@H](N)[C@]1(C)O [Example 102, N-(4-((1R,3R,4R,5S)-3-amino-4-hydroxy-4,5-dimethylcyclohexyl)pyridin-3-yl)-6-(5,7-difluoro-2,3-dihydrobenzofuran-6-yl)-5-fluoropicolinamide]
14.1	58.9	1.43	> 10000	C[C@H]1C[C@@H](c2ccncc2NC(=O)c2ccc(F)c(-c3c(F)cc(C(C)(C)C(=O)O)cc3F)n2)C[C@@H](N)[C@]1(C)O [Example 103, 2-(4-(6-(4-((1R,3R,4R,5S)-3-amino-4-hydroxy-4,5-dimethylcyclohexyl)pyridin-3-ylcarbamoyl)-3-fluoropyridin-2-yl)-3,5-difluorophenyl)-2-methylpropanoic acid]
7.56	4.37	0.07	823	C[C@H]1C[C@@H](c2ccncc2NC(=O)c2ccc(F)c(-c3c(F)cc(C(F)F)cc3F)n2)C[C@@H](N)[C@]1(C)O [Example 104, N-(4-((1R,3R,4R,5S)-3-amino-4-hydroxy-4,5-dimethylcyclohexyl)pyridin-3-yl)-6-(4-(difluoromethyl)-2,6-difluorophenyl)-5-fluoropicolinamide]
183	69.2	0.42	1540	CC(C)Oc1cc(F)c(-c2nc(C(=O)Nc3cnccc3[C@H]3C[C@@H](O)[C@](C)(O)[C@@H](C)C3)ccc2F)c(F)c1 [Example 106, 6-(2,6-difluoro-4-isopropoxyphenyl)-N-(4-((1R,3R,4R,5S)-3,4-dihydroxy-4,5-dimethylcyclohexyl)pyridin-3-yl)-5-fluoropicolinamide]
66.2	30.7	0.2	206	C[C@H]1C[C@@H](c2ccncc2NC(=O)c2ccc(F)c(-c3c(F)cc(C4CCOCC4)cc3F)n2)C[C@@H](O)[C@]1(C)O [Example 108, 6-(2,6-difluoro-4-(tetrahydro-2H-pyran-4-yl)phenyl)-N-(4-((1R,3R,4R,5S)-3,4-dihydroxy-4,5-dimethylcyclohexyl)pyridin-3-yl)-5-fluoropicolinamide]
56.5	18.3	0.11	4150	C[C@H]1C[C@@H](c2ccncc2NC(=O)c2ccc(F)c(-c3c(F)cc(OC4CCNCC4)cc3F)n2)C[C@@H](O)[C@]1(C)O [Example 112, 6-(2,6-difluoro-4-(piperidin-4-yloxy)phenyl)-N-(4-((1R,3R,4R,5S)-3,4-dihydroxy-4,5-dimethylcyclohexyl)pyridin-3-yl)-5-fluoropicolinamide]
128	127	0.55	248	C[C@H]1C[C@@H](c2ccncc2NC(=O)c2ccc(F)c(-c3c(F)cc(C4(F)CCOCC4)cc3F)n2)C[C@@H](O)[C@]1(C)O [Example 113, 6-(2,6-difluoro-4-(4-fluorotetrahydro-2H-pyran-4-yl)phenyl)-N-(4-((1R,3R,4R,5S)-3,4-dihydroxy-4,5-dimethylcyclohexyl)pyridin-3-yl)-5-fluoropicolinamide]
3.57	1.61	0.07	539	C[C@H]1C[C@@H](c2ccncc2NC(=O)c2ccc(F)c(-c3c(F)cc(OCC(F)(F)F)cc3F)n2)C[C@@H](N)[C@]1(C)O [Example 118, N-(4-((1R,3R,4R,5S)-3-amino-4-hydroxy-4,5-dimethylcyclohexyl)pyridin-3-yl)-6-(2,6-difluoro-4-(2,2,2-trifluoroethoxy)phenyl)-5-fluoropicolinamide]
1.45	0.65	0.02	85	C[C@H]1C[C@@H](c2ccncc2NC(=O)c2ccc(F)c(-c3c(F)cc(O[C@@H]4CCCOC4)cc3F)n2)C[C@@H](N)[C@]1(C)O [Example 148, N-(4-((1R,3R,4R,5S)-3-amino-4-hydroxy-4,5-dimethylcyclohexyl)pyridin-3-yl)-6-(2,6-difluoro-4-((R)-tetrahydro-2H-pyran-3-yloxy)phenyl)-5-fluoropicolinamide]

The next lines start with the compound.

SMILES	IC50 (Pim2 kinase) [nM]	IC50 (Pim3 kinase) [nM]	IC50 (Pim1 kinase) [nM]	EC50 [1] [nM]
C[C@H]1C[C@@H](c2ccncc2NC(=O)c2ccc(F)c(-c3c(F)cc(C4(O)CCC4)cc3F)n2)C[C@@H](O)[C@]1(C)O [Example 105, 6-(2,6-difluoro-4-(1-hydroxycyclobutyl)phenyl)-N-(4-((1R,3R,4R,5S)-3,4-dihydroxy-4,5-dimethylcyclohexyl)pyridin-3-yl)-5-fluoropicolinamide]	120	78.3	0.55	2980
COCCOc1cc(F)c(-c2nc(C(=O)Nc3cnccc3[C@H]3C[C@@H](O)[C@](C)(O)[C@@H](C)C3)ccc2F)c(F)c1 [Example 107, 6-(2,6-difluoro-4-(2-methoxyethoxy)phenyl)-N-(4-((1R,3R,4R,5S)-3,4-dihydroxy-4,5-dimethylcyclohexyl)pyridin-3-yl)-5-fluoropicolinamide]	253	74.2	0.89	3180
C[C@H]1C[C@@H](c2ccncc2NC(=O)c2ccc(F)c(-c3c(F)cc(N4CCOCC4)cc3F)n2)C[C@@H](O)[C@]1(C)O [Example 109, 6-(2,6-difluoro-4-morpholinophenyl)-N-(4-((1R,3R,4R,5S)-3,4-dihydroxy-4,5-dimethylcyclohexyl)pyridin-3-yl)-5-fluoropicolinamide]	138	41.3	0.23	781
C[C@H]1C[C@@H](c2ccncc2NC(=O)c2ccc(F)c(-c3c(F)cc(OCCO)cc3F)n2)C[C@@H](O)[C@]1(C)O [Example 111, 6-(2,6-difluoro-4-(2-hydroxyethoxy)phenyl)-N-(4-((1R,3R,4R,5S)-3,4-dihydroxy-4,5-dimethylcyclohexyl)pyridin-3-yl)-5-fluoropicolinamide]	173	38.7	0.83	538
C[C@H]1C[C@@H](c2ccncc2NC(=O)c2nc(-c3c(F)cc(C(C)(C)O)cc3F)ccc2N)C[C@@H](O)[C@]1(C)O [Example 114, 3-amino-6-(2,6-difluoro-4-(2-hydroxypropan-2-yl)phenyl)-N-(4-((1R,3R,4R,5S)-3,4-dihydroxy-4,5-dimethylcyclohexyl)pyridin-3-yl)picolinamide]	21.7	6.93	0.34	924
CCN1CCC(c2cc(F)c(-c3nc(C(=O)Nc4cnccc4[C@H]4C[C@@H](O)[C@](C)(O)[C@@H](C)C4)ccc3F)c(F)c2)CC1 [Example 115, N-(4-((1R,3R,4R,5S)-3,4-dihydroxy-4,5-dimethylcyclohexyl)pyridin-3-yl)-6-(4-(1-ethylpiperidin-4-yl)-2,6-difluorophenyl)-5-fluoropicolinamide]	104	32.8	0.18	310
Cc1cc(F)c(-c2nc(C(=O)Nc3cnccc3[C@H]3C[C@@H](N)[C@](C)(O)[C@@H](C)C3)c(N)cc2F)c(F)c1 [Example 146, 3-amino-N-(4-((1R,3R,4R,5S)-3-amino-4-hydroxy-4,5-dimethylcyclohexyl)pyridin-3-yl)-6-(2,6-difluoro-4-methylphenyl)-5-fluoropicolinamide]	1.66	0.53	0.02	49
C[C@H]1C[C@@H](c2ccncc2NC(=O)c2nc(-c3c(F)cccc3F)c(F)cc2N)C[C@@H](N)[C@]1(C)O [Example 147, 3-amino-N-(4-((1R,3R,4R,5S)-3-amino-4-hydroxy-4,5-dimethylcyclohexyl)pyridin-3-yl)-6-(2,6-difluorophenyl)-5-fluoropicolinamide]	2.37	0.53	0.04	32
